IC50 data for 30 compounds are collected here from patent US7858621B2 (Amorepacific Corporation, priority 2006, dated 2010).

The target of this test is T1, vanilloid receptor (Rattus norvegicus, UniProt O35433).
T1 construct: DRG nerve cells from the primary culture of 2 days were equilibrated; endogenous in cells; host or cells: primary culture of dorsal root ganglion neurons from neonatal SD rats
T1 sequence (O35433 whole entry): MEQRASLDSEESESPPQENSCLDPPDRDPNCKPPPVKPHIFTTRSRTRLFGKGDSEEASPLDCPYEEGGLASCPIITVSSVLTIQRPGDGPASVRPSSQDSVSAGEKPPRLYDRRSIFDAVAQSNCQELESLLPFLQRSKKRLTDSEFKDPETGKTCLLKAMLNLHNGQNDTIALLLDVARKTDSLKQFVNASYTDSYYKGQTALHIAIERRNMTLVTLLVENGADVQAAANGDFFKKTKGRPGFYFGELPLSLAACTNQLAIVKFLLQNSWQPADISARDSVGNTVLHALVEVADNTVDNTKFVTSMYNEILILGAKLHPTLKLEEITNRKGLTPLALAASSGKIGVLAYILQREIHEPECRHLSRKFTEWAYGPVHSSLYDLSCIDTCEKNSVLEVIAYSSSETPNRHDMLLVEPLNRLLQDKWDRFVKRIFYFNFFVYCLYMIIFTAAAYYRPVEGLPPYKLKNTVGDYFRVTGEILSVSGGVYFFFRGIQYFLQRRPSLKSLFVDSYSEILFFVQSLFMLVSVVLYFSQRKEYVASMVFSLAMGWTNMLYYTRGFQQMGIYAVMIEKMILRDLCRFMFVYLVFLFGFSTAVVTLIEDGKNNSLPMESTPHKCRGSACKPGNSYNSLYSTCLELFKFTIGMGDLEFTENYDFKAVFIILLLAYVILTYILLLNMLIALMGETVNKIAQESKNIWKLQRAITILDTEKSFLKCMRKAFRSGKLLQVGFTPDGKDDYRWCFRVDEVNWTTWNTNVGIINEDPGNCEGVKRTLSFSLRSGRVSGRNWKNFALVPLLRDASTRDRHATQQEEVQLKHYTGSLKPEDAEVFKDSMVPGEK
The test can be described thus: 45Ca influx test in cultured neonatal rat DRG neurons, inhibition of capsaicin response. The conditions noted are these: neonatal rat DRG neurons, capsaicin 0.5 μM, 45Ca influx; read-out: Antagonist Calcium Uptake Test (IC50). It counts as cell-based. A digest of the protocol:
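45Ca influx measured by scintillation counting of SDS-eluted neurons after 10 min at room temperature with test compound, 0.5 μM capsaicin (final) and 10 μCi/ml 45Ca in Ca/Mg-free HEPES-HBSS pH 7.4. Cells: primary DRG neurons from newborn SD rats, cultured 2 days with NGF and Ara-C.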
`C[C@@H](NC(=O)/C=C/c1ccc(C(F)(F)F)nc1NCc1ccccc1)c1ccc(NS(C)(=O)=O)c(F)c1` [Example 195, (R)-3-(2-Benzylamino-6-trifluoromethyl-pyridin-3-yl)-N-[1-(3-fluoro-4-methanesulfonylamino-phenyl)-ethyl]-acrylamide]: the IC50 (in general, the concentration at which inhibition is half-maximal) is 0.067 µM.
Under `C#Cc1cc(CNC(=O)/C=C/c2ccc(C(F)(F)F)nc2NCc2ccccc2)cc(F)c1NS(C)(=O)=O` [Example 196, 3-(2-Benzylamino-6-trifluoromethyl-pyridin-3-yl)-N-(3-ethynyl-5-fluoro-4-methanesulfonylamino-benzyl)-acrylamide] stands 0.076 µM; under `C#Cc1cc(CNC(=O)/C=C/c2ccc(C(F)(F)F)nc2CCCCC)cc(F)c1NS(C)(=O)=O` [Example 197, N-(3-Ethynyl-5-fluoro-4-methanesulfonylamino-benzyl)-3-(2-pentyl-6-trifluoromethyl)-pyridin-3-yl-acrylamide], 0.065 µM.
For the compound `CCCCCc1nc(C(F)(F)F)ccc1/C=C/C(=O)NCc1ccc(NS(C)(=O)=O)c(C)c1` [Example 198, N-(4-Methanesulfonylamino-3-methyl-benzyl)-3-(2-pentyl-6-trifluoromethyl)-pyridin-3-yl-acrylamide], the IC50 was 0.054 µM.
On to `CCCCCc1nc(C(F)(F)F)ccc1/C=C/C(=O)NCc1cc(F)c(NS(C)(=O)=O)c(F)c1` [Example 199, N-(3,5-Difluoro-4-methanesulfonylamino-benzyl)-3-(2-pentyl-6-trifluoromethyl)-pyridin-3-yl-acrylamide], for which the IC50 is 0.092 µM.
Under `CS(=O)(=O)Nc1c(F)cc(CNC(=O)/C=C/c2ccc(C(F)(F)F)nc2N2CCCCC2)cc1F` [Example 200, N-(4-Methanesulfonylamino-3,5-difluoro-benzyl)-3-(2-piperid-1-yl-6-trifluoromethyl-pyridin-3-yl)-acrylamide] stands 0.58 µM.
The result for `CS(=O)(=O)Nc1c(F)cc(CNC(=O)/C=C/c2ccc(C(F)(F)F)nc2-c2cccc(F)c2)cc1F` [Example 201, N-(4-Methanesulfonylamino-3,5-difluoro-benzyl)-3-[2-(3-fluoro-phenyl)-6-trifluoromethyl-pyridin-3-yl]-acrylamide] reads 0.42 µM; that for `CCCCNc1nc(C(F)(F)F)ccc1/C=C/C(=O)NCc1cc(F)c(NS(C)(=O)=O)c(F)c1` [Example 202, N-(3,5-Difluoro-4-methanesulfonylamino-benzyl)-3-(2-butylamino-6-trifluoromethyl)-pyridin-3-yl-acrylamide], 0.035 µM; that for `CS(=O)(=O)Nc1c(F)cc(CNC(=O)/C=C/c2ccc(C(F)(F)F)nc2CCc2ccccc2)cc1F` [Example 203, N-(3,5-Difluoro-4-methanesulfonylamino-benzyl)-3-(2-phenethyl-6-trifluoromethyl-pyridin-3-yl)-acrylamide], 0.12 µM.
Under `COCCNc1nc(C(F)(F)F)ccc1/C=C/C(=O)NCc1cc(F)c(NS(C)(=O)=O)c(F)c1` [Example 204, N-(3,5-Difluoro-4-methanesulfonylamino-benzyl)-3-[2-(2-methoxy-ethylamino)-6-trifluoromethyl-pyridin-3-yl]-acrylamide] stands 0.17 µM.
For the compound `CCCCc1nc(C(F)(F)F)ccc1/C=C/C(=O)NCc1cc(F)c(NS(C)(=O)=O)c(F)c1` [Example 205, 3-(2-Butyl-6-trifluoromethyl-pyridin-3-yl)-N-(3,5-difluoro-4-methanesulfonylamino-benzyl)-acrylamide], the concentration for half-maximal inhibition (IC50) stood at 0.086 µM.
As for `CCCc1nc(C(F)(F)F)ccc1/C=C/C(=O)NCc1cc(F)c(NS(C)(=O)=O)c(F)c1` [Example 207, N-(3,5-Difluoro-4-methanesulfonylamino-benzyl)-3-(2-propyl-6-trifluoromethyl-pyridin-3-yl)-acrylamide], the IC50 was found to be 0.14 µM.
`CCCc1nc(C(F)(F)F)ccc1/C=C/C(=O)NCc1ccc(NS(C)(=O)=O)c(C)c1` [Example 208, N-(4-Methanesulfonylamino-3-methyl-benzyl)-3-(2-propyl-6-trifluoromethyl-pyridin-3-yl)-acrylamide]: the IC50 is 0.049 µM.
The result for `CCCc1nc(C(F)(F)F)ccc1/C=C/C(=O)N[C@H](C)c1ccc(NS(C)(=O)=O)c(F)c1` [Example 209, (R)-3-(2-Propyl-6-trifluoromethyl-pyridin-3-yl)-N-[1-(3-fluoro-4-methanesulfonylamino-phenyl)-ethyl]-acrylamide] reads 0.087 µM; that for `CCC(C)Nc1nc(C(F)(F)F)ccc1/C=C/C(=O)N[C@H](C)c1ccc(NS(C)(=O)=O)c(F)c1` (stereo partly drawn) [Example 210, (R)-3-(2-sec-Butylamino-6-trifluoromethyl-pyridin-3-yl)-N-[1-(3-fluoro-4-methanesulfonylamino-phenyl)-ethyl]-acrylamide], 0.022 µM; that for `CCC(C)Cc1nc(C(F)(F)F)ccc1/C=C/C(=O)N[C@H](C)c1ccc(NS(C)(=O)=O)c(F)c1` (stereo partly drawn) [Example 211, (R)-3-[2-(2-Methyl-butyl)-6-trifluoromethyl-pyridin-3-yl]-N-[1-(3-fluoro-4-methanesulfonylamino-phenyl)-ethyl]-acrylamide], 0.062 µM.
Under `COCCNc1nc(C(F)(F)F)ccc1/C=C/C(=O)N[C@H](C)c1ccc(NS(C)(=O)=O)c(F)c1` [Example 212, (R)—N-[1-(3-Fluoro-4-methanesulfonylamino-phenyl)-ethyl]-3-[2-(2-methoxy-ethylamino)-6-trifluoromethyl-pyridin-3-yl]-acrylamide] stands 0.11 µM; under `CCCCNc1nc(C(F)(F)F)ccc1/C=C/C(=O)N[C@H](C)c1ccc(NS(C)(=O)=O)c(F)c1` [Example 213, (R)—N-[1-(3-Fluoro-4-methanesulfonylamino-phenyl)-ethyl]-3-(2-butylamino)-6-trifluoromethyl-pyridin-3-yl-acrylamide], 0.028 µM; under `CCCCCc1nc(C(F)(F)F)ccc1/C=C/C(=O)NCc1cc(C)c(NS(C)(=O)=O)c(F)c1` [Example 214, N-(3-Fluoro-4-methanesulfonylamino-5-methyl-benzyl)-3-(2-pentyl-6-trifluoromethyl)-pyridin-3-yl-acrylamide], 0.098 µM.
The result for `CCCCCc1nc(C(F)(F)F)ccc1/C=C/C(=O)N[C@H](C)c1ccc(NS(C)(=O)=O)c(F)c1` [Example 215, (R)—N-[1-(3-Fluoro-4-methanesulfonylamino-phenyl)-ethyl]-3-(2-pentyl-6-trifluoromethyl)-pyridin-3-yl-acrylamide] reads 0.054 µM; that for `CCCS(=O)(=O)c1nc(C(F)(F)F)ccc1C=CC(=O)NCc1ccc(NS(C)(=O)=O)c(C)c1` [Example 216, N-(4-Methanesulfonylamino-3-methyl-benzyl)-3-[2-(propane-1-sulfonyl)-6-trifluoromethyl-pyridin-3-yl]-acrylamide], 2 µM; that for `CC(C)Nc1nc(C(F)(F)F)ccc1/C=C/C(=O)NCc1cc(F)c(NS(C)(=O)=O)c(F)c1` [Example 217, N-(3,5-Difluoro-4-methanesulfonylamino-benzyl)-3-(2-isopropylamino-6-trifluoromethyl-pyridin-3-yl)-acrylamide], 0.13 µM.
Consider `CC(C)Nc1nc(C(F)(F)F)ccc1/C=C/C(=O)N[C@H](C)c1ccc(NS(C)(=O)=O)c(F)c1` [Example 218, (R)—N-[1-(3-Fluoro-4-methanesulfonylamino-phenyl)-ethyl]-3-(2-isopropylamino-6-trifluoromethyl-pyridin-3-yl)-acrylamide], for which the IC50 was 0.046 µM.
The result for `Cc1cc(CNC(=O)/C=C/c2ccc(C(F)(F)F)nc2NC(C)C)ccc1NS(C)(=O)=O` [Example 219, 3-(2-Isopropylamino-6-trifluoromethyl-pyridin-3-yl)-N-(4-methanesulfonylamino-3-methyl-benzyl)-acrylamide] reads 0.073 µM; that for `Cc1cc(CNC(=O)/C=C/c2ccc(C(F)(F)F)nc2NC(C)C)cc(F)c1NS(C)(=O)=O` [Example 220, N-(3-Fluoro-4-methanesulfonylamino-5-methyl-benzyl)-3-(2-isopropylamino-6-trifluoromethyl-pyridin-3-yl)-acrylamide], 0.071 µM; that for `C#Cc1cc(CNC(=O)/C=C/c2ccc(C(F)(F)F)nc2NCCC)cc(F)c1NS(C)(=O)=O` [Example 221, N-(3-Ethynyl-5-fluoro-4-methanesulfonylamino-benzyl)-3-(2-propylamino-6-trifluoromethyl-pyridin-3-yl)-acrylamide], 0.023 µM.
The result for `CCCNc1nc(C(F)(F)F)ccc1/C=C/C(=O)NCc1cc(C)c(NS(C)(=O)=O)c(F)c1` [Example 223, N-(3-Fluoro-4-methanesulfonylamino-5-methyl-benzyl)-3-(2-propylamino-6-trifluoromethyl-pyridin-3-yl)-acrylamide] reads 0.055 µM.
Under `CCCNc1nc(C(F)(F)F)ccc1/C=C/C(=O)N[C@H](C)c1ccc(NS(C)(=O)=O)c(F)c1` [Example 224, (R)—N-[1-(3-Fluoro-4-methanesulfonylamino-phenyl)-ethyl]-3-(2-propylamino-6-trifluoromethyl-pyridin-3-yl)-acrylamide] stands 0.016 µM.
As for `CCCNc1nc(C(F)(F)F)ccc1/C=C/C(=O)NCc1ccc(NS(C)(=O)=O)c(C)c1` [Example 225, N-(4-Methanesulfonylamino-3-methyl-benzyl)-3-(2-propylamino-6-trifluoromethyl-pyridin-3-yl)-acrylamide], the IC50 came out at 0.052 µM.
The result for `CC(C)Cc1nc(C(F)(F)F)ccc1/C=C/C(=O)NCc1cc(F)c(NS(C)(=O)=O)c(F)c1` [Example 226, N-(3,5-Difluoro-4-methanesulfonylamino-benzyl)-3-(2-isobutyl-6-trifluoromethyl-pyridin-3-yl)-acrylamide] reads 0.085 µM.
